Source: patent US20100331311A1 (priority 2005, published 2010)

Assays:
[1] = tested on: retinal ganglion cells (RGCs); format: in vivo, Sprague-Dawley rats
[2] = tested on: retinal ganglion cells (RGCs); set-up: species or system Brown Norway rats; conditions: rat, in vivo, ip, 3.5 mg/kg
Protocol: Two weeks after ocular hypertension surgery, animals were subjected to daily treatment with galantamine ˜3.5 mg/kg body weight, intraperitoneal administration (i.p.). Analysis of RGC survival was carried out at 5 weeks after ocular hypertension surgery.
Therefore, two weeks after ocular hypertension surgery, animals received daily intraperitoneal (i.p) injections of galantamine at a dose of 3.5 mg/kg b.w. as shown in FIG. 2.
All surgeries were performed in adult male Brown Norway rats, retired breeders, between 10-12 months of age (300-400 g), under general anesthesia by intraperitoneal injection of 1 ml/kg b.w. standard rat cocktail consisting of ketamine (100 mg/ml), xylazine (20 mg/ml) and acepromazine (10 mg/ml).
Seven days after DiI application, the time required for labeling the entire RGC population, animals were subjected to ocular hypertension surgery as described below. […]
Analysis of RGC survival was carried out at 5 weeks after ocular hypertension surgery. Quantification of RGC bodies or axons was always performed in duplicate and in a masked fashion. […] Under fluorescence microscopy, DiI-labeled or FluoroGold-labeled neurons were counted in 12 standard retinal areas as previously described (Cheng et al. 2002; Sapieha et al. 2003).

[3] = tested on: glaucomatous and normal (contralateral) eyes; set-up: species or system Brown Norway rats; conditions: rat, in vivo, 3.5 mg/kg
Protocol: IOP from glaucomatous and normal (contralateral) eyes was measured in awake animals using a calibrated tonometer (TonoPen XL, Medtronic Solan, Jacksonville, Fla.). Ten to fifteen consecutive readings per eye were taken and averaged to obtain an accurate daily IOP measurement. IOP was measured daily for two weeks after ocular hypertension surgery, and then every other day for the entire duration of the experiment. The mean IOP (mm Hg±S.E.M.) per eye was the average of all IOP readings since the onset of pressure elevation. The maximum IOP measured in each individual eye, glaucomatous or normal contralateral eye, was defined as the peak IOP and this value was used to estimate the mean peak IOP for each group. The delta positive integral IOP was calculated as the area under the IOP curve in the glaucomatous eye minus that of the fellow normal eye from ocular hypertension surgery to euthanasia. Integral IOP represents the total, cumulative IOP exposure throughout the entire experiment.
For this purpose, Applicant measured intraocular pressure every other day for entire duration of daily treatment with galantamine up to 35 days after ocular hypertension (OHT) surgery.

[4] = human, in vivo; cited from earlier work
[5] = mouse, in vivo; cited from earlier work
[6] = biological target: alpha-7 nicotinic acetylcholine receptor (Rattus norvegicus, UniProt Q05941); set-up: species or system Sprague-Dawley rats; conditions: in vivo
Chain of alpha-7 nicotinic acetylcholine receptor (Q05941 23-502 limits assumed): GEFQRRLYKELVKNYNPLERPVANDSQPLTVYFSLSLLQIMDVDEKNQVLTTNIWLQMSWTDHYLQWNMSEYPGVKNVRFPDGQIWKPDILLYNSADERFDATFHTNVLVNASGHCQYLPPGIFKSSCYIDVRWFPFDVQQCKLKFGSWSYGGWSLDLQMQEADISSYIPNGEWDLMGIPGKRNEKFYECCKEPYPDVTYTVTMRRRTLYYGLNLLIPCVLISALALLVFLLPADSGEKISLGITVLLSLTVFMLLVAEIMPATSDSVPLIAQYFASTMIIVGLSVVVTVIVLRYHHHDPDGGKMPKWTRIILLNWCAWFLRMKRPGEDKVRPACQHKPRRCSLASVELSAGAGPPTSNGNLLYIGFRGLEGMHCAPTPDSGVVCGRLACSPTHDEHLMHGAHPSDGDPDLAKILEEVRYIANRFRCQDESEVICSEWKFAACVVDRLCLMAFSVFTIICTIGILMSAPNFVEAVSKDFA

COc1cc2c(cc1OC)C(=O)C(CC1CCN(Cc3ccccc3)CC1)C2 (stereo not shown) [Donepezil, donepezil]
neuroprotection of RGCs after axotomy, galantamine vs donepezil (in words) ([1]; 3.5 mg/kg b.w., single intraocular injection, 1 week after optic nerve axotomy): neuroprotective after axotomy

COc1ccc2c3c1O[C@H]1C[C@@H](O)C=C[C@@]31CCN(C)C2 [Galantamine, galantamine]
RGCs preserved [2]: 90% | Integral IOP [3]: 321 ± 10 mm Hg | Mean IOP Control [3]: 23.7 ± 0.2 mm Hg | Mean IOP Glaucoma [3]: 40.7 ± 0.8 mm Hg | RGCs remaining alive ([1]; rat, in vivo): ~30% | survival of axotomized RGCs ([1]; rat, in vivo): > 75% | estimated brain concentration of functionally available galantamine [4]: 500 to 1200 nM | brain levels [5]: 200 to 1000 nM

Alpha-bungarotoxin
block of the total neuroprotective effect of galantamine [6]: 10-15%
